According to ChEMBL document CHEMBL1201862, “PubChem BioAssay data set” (2004):
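Assay format: 96-well plates, 48-hour exposure. GI50 is the concentration that inhibits growth by half.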 The source made the active and inactive calls. Rule as the data show it: active = GI50 up to about 1.1 µM and inactive = higher.

How the values were obtained:
Assay in all cases: growth of human tumour cells (NCI), 48 h
LOX IMVI = system: LOX IMVI
EKVX = system: EKVX
CAKI-1 = system: CAKI-1
SK-MEL-28 = system: SK-MEL-28
HL-60 = system: HL-60
COLO 205 = system: COLO 205
SF-295 = system: SF-295
MOLT-4 = system: MOLT-4
HCT-15 = system: HCT-15
SN12C = system: SN12C
SK-MEL-2 = system: SK-MEL-2
HT-29 = system: HT-29
RPMI-8226 = system: RPMI-8226
A549 = system: A549
SNB-19 = system: SNB-19
OVCAR-8 = system: OVCAR-8
SK-MEL-5 = system: SK-MEL-5
M14 = system: M14
IGROV-1 = system: IGROV-1
MCF7 = system: MCF7

| SMILES | GI50 (LOX IMVI) | GI50 (EKVX) | GI50 (CAKI-1) | GI50 (SK-MEL-28) | GI50 (HL-60) | GI50 (COLO 205) | GI50 (SF-295) | GI50 (MOLT-4) | GI50 (HCT-15) [µM] | GI50 (SN12C) | GI50 (SK-MEL-2) | GI50 (HT-29) | GI50 (RPMI-8226) | GI50 (A549) | GI50 (SNB-19) | GI50 (OVCAR-8) | GI50 (SK-MEL-5) | GI50 (M14) | GI50 (IGROV-1) | GI50 (MCF7) |
| --- | --- | --- | --- | --- | --- | --- | --- | --- | --- | --- | --- | --- | --- | --- | --- | --- | --- | --- | --- | --- |
| CCCCCCCCCCCCSC(=S)c1c(C)[nH]n(CCCCCCCCCCCC)c1=O | > 100 µM (inactive) | 27.5 µM (inactive) | > 100 µM (inactive) | > 100 µM (inactive) | 66.7 µM (inactive) | > 100 µM (inactive) | > 100 µM (inactive) | > 100 µM (inactive) | 65.3 | 77.1 µM (inactive) | 78.2 µM (inactive) | 74.1 µM (inactive) | 94.8 µM (inactive) | 40.5 µM (inactive) | > 100 µM (inactive) | 91.2 µM (inactive) | > 100 µM (inactive) | > 10 µM (inactive) | > 100 µM (inactive) |  |
| O=c1ccc2ccc(CBr)cc2o1 | 1.5 µM (inactive) | 2.49 µM (inactive) | 1.55 µM (inactive) | 13.6 µM (inactive) | 1.76 µM (inactive) |  | 15.3 µM (inactive) | 2.29 µM (inactive) | 1.87 | 2.69 µM (inactive) | 11.4 µM (inactive) | 2.48 µM (inactive) | 1.61 µM (inactive) | 15.5 µM (inactive) | 12.4 µM (inactive) | 2.05 µM (inactive) | 2.79 µM (inactive) | 2.8 µM (inactive) | 3.57 µM (inactive) | 1.9 µM (inactive) |
| CCOC(=O)/C(Cl)=C(\C)Nc1nc2c(ccc3ccccc32)s1 |  | 32.6 µM (inactive) | 87.9 µM (inactive) | > 100 µM (inactive) | 38.1 µM (inactive) | 47.9 µM (inactive) | > 100 µM (inactive) | 7.28 µM (inactive) | 26.1 | 47.6 µM (inactive) | 26.6 µM (inactive) | 45.3 µM (inactive) |  |  | > 100 µM (inactive) | 60.3 µM (inactive) | 31.2 µM (inactive) | 33.2 µM (inactive) | > 100 µM (inactive) | 24.5 µM (inactive) |
| C[C@H](N[C@H]1CCC[C@]1(O)C#Cc1ccc2c(c1)OCO2)c1ccccc1 | > 25 µM (inactive) | > 25 µM (inactive) | > 25 µM (inactive) | 15.5 µM (inactive) | > 25 µM (inactive) | 9.25 µM (inactive) | > 25 µM (inactive) | 10.9 µM (inactive) | > 25 |  | 8.61 µM (inactive) | > 25 µM (inactive) | 8.89 µM (inactive) | > 25 µM (inactive) | > 25 µM (inactive) | > 25 µM (inactive) | 22.6 µM (inactive) | 14.2 µM (inactive) | 14.3 µM (inactive) | > 25 µM (inactive) |
| Clc1nc(-[n+]2ccc(-c3ccncc3)cc2)nc(Nc2ccccc2)c1Cl | 50.4 µM (inactive) | 83.8 µM (inactive) |  | > 100 µM (inactive) | 35.3 µM (inactive) | > 100 µM (inactive) |  | 49.1 µM (inactive) | > 100 | > 100 µM (inactive) | > 100 µM (inactive) | > 100 µM (inactive) | 57.9 µM (inactive) | > 100 µM (inactive) | > 100 µM (inactive) |  | > 100 µM (inactive) | > 100 µM (inactive) | 59.7 µM (inactive) | 33.1 µM (inactive) |
| O=C1CCCN1CCC/N=c1/cc2n(-c3ccc(Cl)cc3)c3ccccc3nc-2cc1Nc1ccc(Cl)cc1 | 7.71 µM (inactive) | 13.1 µM (inactive) | 27 µM (inactive) | 23.8 µM (inactive) | 3.47 µM (inactive) | 1.41 µM (inactive) | 19.3 µM (inactive) | 3.66 µM (inactive) | 4.52 | 14.8 µM (inactive) | 13.1 µM (inactive) | 2.13 µM (inactive) | 5.98 µM (inactive) | 15.7 µM (inactive) | 34.7 µM (inactive) | 14.6 µM (inactive) | 13 µM (inactive) |  | 2.75 µM (inactive) | 7.24 µM (inactive) |
| CC(C)(C)c1ccc2c(c1)OP1(Oc3c(Cl)cc(Cl)c4cccnc34)(O2)Oc2ccc(C(C)(C)C)cc2O1 | 5.55 µM (inactive) | 5.16 µM (inactive) | 3.78 µM (inactive) | 11.3 µM (inactive) | 2.65 µM (inactive) | 13.4 µM (inactive) | 5.42 µM (inactive) | 2.81 µM (inactive) | 4.53 | 11 µM (inactive) | 10.2 µM (inactive) | 5.2 µM (inactive) | 3.59 µM (inactive) | 6 µM (inactive) | 7.53 µM (inactive) | 5.31 µM (inactive) | 8.51 µM (inactive) |  | 8.55 µM (inactive) | 4.58 µM (inactive) |
| Nc1nc(Cl)nc2c1ncn2C1CC(O)C(CO)O1 (stereo not given) | 3.62 µM (inactive) | 1.21 µM (inactive) | 0.665 µM (active) | 43.3 µM (inactive) | 0.0601 µM (active) | 33.4 µM (inactive) | 67.9 µM (inactive) | 0.15 µM (active) | 45.9 | 0.738 µM (active) | > 100 µM (inactive) | 19.3 µM (inactive) | 54.2 µM (inactive) | 4.26 µM (inactive) | 1.47 µM (inactive) | 0.097 µM (active) | 5.12 µM (inactive) |  | 81.8 µM (inactive) | 9.75 µM (inactive) |
| COc1cc(C2S/C(=C/c3ccccc3)C(=O)N2c2ccccc2Cl)cc(OC)c1OC (stereo not given) | 18.7 µM (inactive) | 13.6 µM (inactive) | 32.6 µM (inactive) | 42.2 µM (inactive) |  | 33.3 µM (inactive) | 28.9 µM (inactive) | 41.8 µM (inactive) | 27.5 | 21.4 µM (inactive) | 16 µM (inactive) | 19.1 µM (inactive) |  | 37.1 µM (inactive) | 35.5 µM (inactive) | 19.3 µM (inactive) | 20.7 µM (inactive) | 20.2 µM (inactive) |  | 18.6 µM (inactive) |
